Laboratory results reported in US20190269721A1, “METHODS AND COMPOSITIONS FOR DEGRADING CALCIUM PHOSPHATE AND FOR TREATING CALCIFICATION DISORDERS” (MERZ NORTH AMERICA, INC., priority 2016, published 2019).
Read-outs that look alike come from different tables or passages of the source.

Tests used:
[1] = background statement; cited from earlier work
[2] = Degradation of Radiesse calcium hydroxyapatite filler injected into porcine samples (histology of punch biopsy); settings: for dissolution of calcium hydroxyapatite in the samples: 24 hours after treatment, histology
Method: In a prospective, single-center clinical trial, 12 porcine samples (pieces of fresh pork shoulder) were injected with Radiesse®, with volumes ranging from 0.4 to 0.8 mL.
The samples were then randomized to three treatment groups: topical sodium metabisulfite (25% (w/v) SMB, formulated in petrolatum jelly: about 1-2 grams SMB applied topically to each site on the skin, 25% (w/v) sodium metabisulfite in 120 ml gel) application with occlusion, intralesional injection of about 0.2 mL of sodium thiosulfate solution (STS, concentration 12.5 g/50 mL, i.e., 0.25 g/mL or 25% (w/v)), or both. The volume ratio of Radiesse:STS solution ranged from 2:1 to 4:1. In the control group, samples were not treated after the Radiesse® injection.
(§1) Twenty-four hours after treatment, a 4-mm punch biopsy was obtained and processed for histology to evaluate the presence, absence, or degradation of calcium hydroxyapatite (FIGS. 1A-1D). A blinded, board-certified dermatopathologist read the samples and determined the amount of calcium present in each sample.

[3] = Degradation of Radiesse calcium hydroxyapatite filler injected into human skin samples (histology of punch biopsy); settings: for dissolution of calcium hydroxyapatite in the samples: 24 hours after treatment, histology
Method: Human skin samples (two living skin samples taken from living tissue in each group) were injected with 0.4 mL Radiesse®.
The samples were then randomized to three treatment groups: topical sodium metabisulfite (25% (w/v) SMB, formulated in petrolatum jelly, about 1-2 grams SMB applied topically to each site on the skin) application with occlusion, intralesional injection of about 0.4-0.8 mL sodium thiosulfate solution (STS, concentration 12.5 g/50 mL i.e., 0.25 g/mL), or both. In the control group, samples were not treated after the Radiesse® injection.
as §1, with “1E-1F).” for “1A-1D).”

[4] = 1-2 h post-STS injection
Method: In the prospective histology study, 3 patients received Radiesse® injections (12-20 injections/patient) followed by intralesional STS injection (STS, concentration 12.5 g/50 mL, i.e., 0.25 g/mL) in the abdomen/arm prior to abdominoplasty/brachioplasty. Patients received various Radiesse:STS solution volume ratios ranging from 1:1 to 1:2.5, including patient 1: 0.5 mL CaHA and 0.5 mL STS per site (volume ratio of CaHA:STS is 1:1); patient 2: 0.2 mL CaHA and 0.5 mL STS per site (volume ratio of CaHA:STS is 1:2.5); patient 3: 0.15 mL CaHA and 0.3 mL STS per site (volume ratio of CaHA:STS is 1:2). Tissue was harvested about 1-2 h after STS injection, and a 4-mm punch biopsy was assessed for the presence of CaHA (using hematoxylin-eosin sections).
(§2) At visit 1, deep CaHA nodules were injected using a 32-gauge half inch needle with STS (STS, concentration 12.5 g/50 mL, i.e., 0.25 g/mL; 2 injections; 0.3 mL total). At visit 2 (about 3-4 weeks after visit 1), the patient received subsequent injections using a 32-gauge half inch needle on a luer lock syringe of STS (0.3 mL total) to superficial CaHA nodules.

[5] = Method: as §2
[6] = remark: listed apart in the source
Method: A filler composition comprising CaHA and HA (hyaluronic acid) was used in a subject. 0.4 ml of CaHA was mixed with 0.4 ml of a highly cohesive HA filler and injected into the volar surface of a human forearm. 0.4 ml of intralesional (IL) STS was injected intralesionally into the treated area. 4 hours after treatment, a 5-mm punch biopsy was obtained. H &E was used to evaluate the presence, absence, or degradation of calcium hydroxyapatite and hyaluronic acid. A blinded, board-certified dermatopathologist read the samples and determined the amount of calcium present in each sample.

[7] = over the next 4 days or so after visit 1

O=C(O)CN(CCN(CC(=O)O)CC(=O)O)CC(=O)O [EDTA, ethylenediaminetetraacetic acid]
ability to dissolve / reduce calcium hydroxyapatite [1]: unsuccessful

O=S([O-])S(=O)(=O)[O-].[Na+].[Na+] [SMB, sodium metabisulfite]
% of calcium hydroxyapatite degraded 24 hrs after treatment [2]: ~50% | dissolution of calcium hydroxyapatite in the samples ([2]; porcine samples): reduced, but did not entirely clear | effects on collagen or surrounding structures [3]: no apparent deleterious effects | dissolution of calcium hydroxyapatite in the samples ([3]; human skin samples): reduced, but did not entirely clear

O=S([O-])([O-])=S.[Na+].[Na+] [STS, sodium thiosulfate]
% of calcium hydroxyapatite degraded 24 hrs after treatment ([2]; porcine samples, 0.4-0.8 mL Radiesse, STS 25% (w/v) about 0.2 mL intralesional, SMB 25% (w/v) topical with occlusion, 4-mm punch biopsy): 100% | dissolution of calcium hydroxyapatite in the samples ([2]; porcine samples): completely dissolved | % of calcium hydroxyapatite degraded 24 hrs after treatment ([3]; human skin samples, 0.4 mL Radiesse, STS 0.25 g/mL about 0.4-0.8 mL intralesional, SMB 25% (w/v) topical with occlusion, 4-mm punch biopsy): 100% | dissolution of calcium hydroxyapatite in the samples ([3]; human skin samples): completely dissolved | effects on collagen or surrounding structures ([3]; human tissue, intralesional STS and/or topical SMB): no apparent deleterious effects | CaHA dissolution in histologic analyses ([4]; all human tissue samples, CaHA:STS volume ratio 1:1 to 1:2.5): markedly dissolved | CaHA decrease ([4]; human tissue samples): no less than 70% | time until burning sensation resolved ([5]; after immediate ice application): ≤ 1 min | burning sensation upon injection, 10-point pain scale ([5]; both visits): 5-6 | erythema [5, 7]: concomitant reduction in erythema | nodule sizes (patient reported) [5, 7]: progressive reduction in nodule sizes | effect on deep nodules ([5]; visit 1, first STS injection, 0.3 mL total, 0.25 g/mL): immediate softening | time until superficial nodules softened and became semi-fluctuant ([5]; visit 2, STS 0.3 mL total): 1 to 2 min | reduction of the amount of calcium phosphate tissue filler ([6]; about 24 hours after administration): about 100% | effects on collagen or surrounding structures ([6]; human tissue, intralesional STS): no apparent deleterious effects | dissolution of CaHA in a mixture of CaHA and HA ([6]; reduced time period of 4 hours): completely dissolve | dissolution of calcium hydroxyapatite in the sample ([6]; twenty-four hours after intralesional STS injection, 0.4 ml STS, 0.4 ml CaHA + 0.4 ml HA): completely dissolved

hyaluronidase
ability to dissolve / reduce calcium hydroxyapatite [1]: cannot effectively dissolve
